Data on 12 molecules can be found in US9447087B2, “Galactokinase inhibitors for the treatment and prevention of associated diseases and disorders” (UNIVERSITY OF UTAH RESEARCH FOUNDATION, priority 2011, dated 2016).

One data set deals with GALK (Homo sapiens (Human), UniProt P51570). The experiment in a line: primary qHTS assay for inhibitors of GALK (KinaseGlo ATP depletion). It is filed as biochemical. The note with it: 5 nM GALK, 35 μM ATP, 1 hr incubation. On the procedure:
Assay details and protocol: The primary assay monitored ATP depletion using Promega's KinaseGlo™ technology, where ATP levels are measured through luminescence generated from firefly luciferase, a bioluminescent ATP-dependent enzymes. […] This was used as the positive control for the assay. […]
Background: In qHTS, concentration-response curves come from the screen itself.

In a further data set the test system is HEK293 cells. Nature of the data set: cytotoxicity, Promega CellTiter Glo on HEK293 cells (PubChem ID 2547). The note with it: analyzed after 48 hours. Format: cell-based. The method, then: (§1) The selectivity for these analogs against CDP-ME kinase, another member of the GHMP kinase family, was performed using a bioluminescent Kinase Glo™ assay that detects ATP depletion after kinase reaction (PubChem ID 2506). […] All analogs were also tested for cytotoxicity using Promega CellTiter Glo on HEK293 cells that were treated with compounds and analyzed after 48 hours.
Background: In ATP-based viability assays light output follows the ATP content of the culture.

The target in another data set is CDP-ME kinase (Escherichia coli (strain K12), UniProt P62615). The experiment in a line: selectivity against CDP-ME kinase (bioluminescent Kinase Glo ATP depletion, PubChem ID 2506). Format: biochemical. Conditions: up to 57 μM. On the procedure: as §1, with “hours. […] In addition, the ability of these compounds to undergo redox recycling, which may lead to false positive results, was also evaluated using an endpoint colorimetric assay; this assay detects the presence of H2O2 in the kinase reaction buffer (PubChem ID 2502).” for “hours.”

A short description of a further data set: Solubility in PBS. It is filed as physicochemical. The note with it: aqueous buffer, pH 7.4, 23° C.

The structures appear in SMILES notation. In brackets after ≈: the same amount, converted by molar mass.

Sequence of GALK (P51570 whole entry): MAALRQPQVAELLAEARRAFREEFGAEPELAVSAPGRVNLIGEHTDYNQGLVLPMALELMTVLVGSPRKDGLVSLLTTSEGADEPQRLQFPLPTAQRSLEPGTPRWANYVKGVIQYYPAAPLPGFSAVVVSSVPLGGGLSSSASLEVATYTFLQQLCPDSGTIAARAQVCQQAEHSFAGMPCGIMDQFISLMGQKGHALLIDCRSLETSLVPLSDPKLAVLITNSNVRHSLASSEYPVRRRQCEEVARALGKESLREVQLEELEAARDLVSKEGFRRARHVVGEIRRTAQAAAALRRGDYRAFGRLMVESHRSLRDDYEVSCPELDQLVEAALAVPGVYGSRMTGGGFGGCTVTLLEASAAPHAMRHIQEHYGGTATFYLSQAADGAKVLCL
Sequence of CDP-ME kinase (P62615 whole entry, looked up): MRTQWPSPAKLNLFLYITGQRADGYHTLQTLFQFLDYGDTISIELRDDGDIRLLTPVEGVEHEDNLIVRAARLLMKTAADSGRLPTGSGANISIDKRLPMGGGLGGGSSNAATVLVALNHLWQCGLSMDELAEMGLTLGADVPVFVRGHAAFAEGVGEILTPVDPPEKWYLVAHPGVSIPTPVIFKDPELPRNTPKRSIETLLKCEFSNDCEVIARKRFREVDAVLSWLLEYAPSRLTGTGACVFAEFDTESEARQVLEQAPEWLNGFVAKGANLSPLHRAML

`O=C1CCCC2=C1C1(CCC1)N=C(Nc1nc3ccccc3o1)N2` [Compound 3]: the IC50 (as a rule, the concentration needed to halve the response being measured) against GALK came out at 16.8 µM. Also, the “cytotoxic effect on HEK293 cells” value in the data set with HEK293 cells was “no cytotoxic effect”. Turning to `O=C1CCCC2=C1C1(CCCC1)N=C(Nc1nc3ccccc3o1)N2` [Compound 4], in the data set on HEK293 cells, the “cytotoxic effect on HEK293 cells” value is listed as “no cytotoxic effect”. In turn, `O=C1CC(c2ccccc2)CC2=C1C1(CCCCC1)N=C(Nc1nc3ccccc3o1)N2` (centres unmarked) [Compound 6] displayed an IC50 against GALK of 42.1 µM. The “cytotoxic effect on HEK293 cells” value with HEK293 cells is on record as “no cytotoxic effect”. In the case of `CC1(C)CC(=O)C2=C(C1)NC(Nc1nc3ccccc3o1)=NC21CCCC1` [Compound 8], at GALK, 6.68 µM corresponded to half-maximal inhibition (IC50). In the data set on HEK293 cells, the “cytotoxic effect on HEK293 cells” value is “no cytotoxic effect”. In the case of `O=C1CCC2=C1C1(CCCC1)N=C(Nc1nc3ccccc3o1)N2` [Compound 10], at GALK, the IC50 came out at 13.3 µM. Moreover, the “cytotoxic effect on HEK293 cells” value with HEK293 cells was “no cytotoxic effect”.

In the case of `O=C1CCCC2=C1C1(CCCC1)N=C(Nc1nc3cc(Cl)ccc3o1)N2` [Compound 20], inhibition at GALK was half-maximal at 6.68 µM (IC50). Also, the “cytotoxic effect on HEK293 cells” value with HEK293 cells is given as “no cytotoxic effect”. For the molecule `Cc1ccc2oc(NC3=NC4(CCCC4)C4=C(CCCC4=O)N3)nc2c1` [Compound 26], the IC50 on GALK worked out at 5.95 µM. Further, the “cytotoxic effect on HEK293 cells” value in the data set with HEK293 cells is recorded as “no cytotoxic effect”. The molecule `O=C1CCCC2=C1C1(CCCC1)N=C(Nc1nc3cc(Br)ccc3o1)N2` [Compound 27] returned a concentration for half-maximal inhibition (IC50) against GALK of 7.49 µM. The “cytotoxic effect on HEK293 cells” value with HEK293 cells is recorded as “no cytotoxic effect”. At GALK, `Cc1ccc2nc(NC3=NC4(CCCC4)C4=C(CCCC4=O)N3)oc2c1` [Compound 28] yielded a 50% inhibitory concentration (IC50) of 21.1 µM. For the same molecule, the “cytotoxic effect on HEK293 cells” value with HEK293 cells is reported as “no cytotoxic effect”.

In the case of `O=C1CCCC2=C1C1(CCCC1)N=C(Nc1nc3cc4ccccc4cc3o1)N2` [Compound 33], the IC50 against GALK came to 37.5 µM. Moreover, the “cytotoxic effect on HEK293 cells” value in the data set with HEK293 cells is “no cytotoxic effect”. Consider `Cn1c(NC2=NC3(CCCC3)C3=C(CCCC3=O)N2)nc2ccccc21` [Compound 35], for which half-maximal inhibition against GALK (IC50) was put at 74.9 µM. Moreover, the “cytotoxic effect on HEK293 cells” value in the data set with HEK293 cells was “no cytotoxic effect”. For the molecule `O=C1CCCC2=C1C1(CCCC1)N=C(Nc1nc3ccccc3o1)N2` [NCGC00187642], on CDP-ME kinase, the “activity against CDP-ME kinase” value is reported as “no activity”. Further, the concentration in solution in the data set “Solubility in PBS” (solubility) came to 2.3 µg/mL (≈ 6.84 µM).
